Assay results: patent publication EP0504807B1, “Use of bis-(p-hydroxyphenylthio)methane derivatives to inhibit progressive development of insulin-dependent diabetes mellitus” (MERRELL PHARMACEUTICALS INC., priority 1991, dated 1992)

Assays:
Female NOD mice [1] = experiment: Prevention of the progressive development of IDDM in the NOD mouse (incidence of diabetes by urine glucose and plasma glucose); assay type: in vivo
From the text: The non-obese diabetic (NOD) mouse has a genetic predisposition to developing IDDM, particularly among the females. Diabetes begins to appear at 12-14 weeks of age and by 30-36 weeks of age about 75-85% of female NOD's will have developed IDDM. As such, the NOD mouse provides a standard experimental model for IDDM in man which is well known and appreciated by those skilled in the art [see Lampeter, et al: Diabetologia 32, 703 (1989)]. The effect of experimental agents on the NOD mouse can thus be studied to determine whether these agents are active in inhibiting the development of diabetes.
Female NOD mice were maintained on standard laboratory rodent feed containing either 0% (Control Group) or 1% bis(3,5-di-tertiary-butyl-4-hydroxyphenylthio)methane (Treated Group) as an admixture. The mice were started on these diets at 4 weeks of age and continued until they were 24 weeks old. Each mouse was tested for diabetes at 8, 12, 14, 16, 18, 20, 22 and 24 weeks of age. Diabetic mice were detected by a positive urine glucose measurement and were confirmed by a plasma glucose level greater than 300 mg/dL. Urine glucose was determined using Diastix™ reagent strips for urinalysis (Miles Inc., Diagnostics Division, Elkhart, IN) and plasma glucose using Glucose (GDH Endpoint) Reagent™ (Seradyn, Inc., Indianapolis, IN).
Mice were counted as diabetic if a positive urine glucose and plasma glucose greater than 300 mg/dL were determined on 3 consecutive measurements. If mice were determined to be diabetic for 1 or 2 consecutive measurements and then died with physical indications of IDDM such as severe weight loss, these mice were also counted as diabetic.
At 24 weeks of age, 30 of 61 mice in the Control Group (49%) had become diabetic compared to 2 of 51 mice in the Treated Group (4%).
The treated, nondiabetic mice (N=38) not sacrificed at 24 weeks of age were switched to control diet and monitored, along with the 21 remaining controls, for 24 more weeks. During this period, 13 of 21 (62%) controls and 13 of 38 (34%) previously treated mice developed diabetes (p=0.04). Combining the two 24 week study periods, the percentage of mice that developed diabetes among the controls was 81% (51% of the controls were nondiabetic after 24 weeks of study and 38% of these were still nondiabetic after 24 more weeks for an overall total of 19% nondiabetic control animals). Among the group treated for 24 weeks the percentage of mice that developed diabetes after 48 weeks of study was 37% (96% were nondiabetic after 24 weeks and 66% of these were still nondiabetic 24 weeks after stopping treatment).

Female NOD mice [2] = experiment: Pancreatic histopathology of NOD mice at 24 weeks of age (hematoxylin and eosin, immunoperoxidase for insulin); assay type: in vivo, NOD mouse; conditions: 1% in feed
From the text: At 24 weeks of age, randomly selected control (N=10) and treated (N=10) nondiabetic mice and all surviving diabetic control (N=15) and treated (N=1) mice were sacrificed. Pancreata were collected and stored in formalin, processed, embedded, and sectioned by standard histological methods. Sections stained with hemotoxylin and eosin or by immunoperoxidase for insulin (as a marker for the presence of β-cells) were examined light microscopically. […]

[3] = Clinical Status Diabetic, 1 mouse
[4] = Clinical Status Nondiabetic, 10 mice

Q: Which results are given for `CC(C)(C)c1cc(SCSc2cc(C(C)(C)C)c(O)c(C(C)(C)C)c2)cc(C(C)(C)C)c1O` [Bis(3,5-di-tertiary-butyl-4-hydroxyphenylthio)methane]?
A: percentage of mice that developed diabetes (Female NOD mice [1]; after 48 weeks of study, group treated for 24 weeks, two 24 week periods combined, controls 81%): 37%; treated mice nondiabetic (Female NOD mice [1]; at 24 weeks of age / after 24 weeks of study, 1% in feed, controls 51%): 96%; mice that had become diabetic (Female NOD mice [1]; at 24 weeks of age, 1% in feed as an admixture from 4 to 24 weeks of age, Control Group 30 of 61): 2 of 51; mice that had become diabetic (percentage) (Female NOD mice [1]; at 24 weeks of age, 1% in feed from 4 to 24 weeks of age, Control Group 49%): 4%; still nondiabetic 24 weeks after stopping treatment (Female NOD mice [1]; of the mice nondiabetic after 24 weeks of treatment, controls 38%): 66%; previously treated mice that developed diabetes (Female NOD mice [1]; treated nondiabetic mice switched to control diet at 24 weeks of age, monitored 24 more weeks, controls 13 of 21, p=0.04): 13 of 38; previously treated mice that developed diabetes (percentage) (Female NOD mice [1]; treated nondiabetic mice switched to control diet at 24 weeks of age, monitored 24 more weeks, controls 62%, p=0.04): 34%; Atrophy (Female NOD mice [2]; [3]): 1 number of mice; Insulitis (Female NOD mice [2]; [3]): 1 number of mice; β-Cells Present (Female NOD mice [2]; [3]): 1 number of mice; Atrophy (Female NOD mice [2]; [4]): 2 number of mice; Insulitis (Female NOD mice [2]; [4]): 9 number of mice
